In patent US20240245682A1, “ALPHA-V-BETA-8 INTEGRIN INHIBITORS AND USES THEREOF” (Pliant Therapeutics, Inc., priority 2022, published 2024):
Several values for one entry are separate records, joined by “and”; a condition that tells them apart may be missing. Identical values can stand only once.

Experiments:
TKCC-05 tumors = assay: Orthotopic TKCC-05 (PDX-05) PDX model of PDAC (Example B12); type: in vivo, NSG mice; details: FIG. 26B
Protocol: (§1) Table B-9 depicts the study design to determine the efficacy of selective αvβ1/αvβ8 SMI in the orthotopic ECM-high PDX models of PDAC. Table B-10 depicts the study design for the TKCC-10 PDX model.
Table B-11 depicts the study design for the TKCC-05 model.
TKCC-05 cells were inoculated in the pancreas of […] mice and were allowed to grow into tumors for 1 week. The mice were then treated according to schema outlined in […], and FIG. 26A, which depicts a schematic diagram of the treatment regimen in the TKCC-05 PDAC PDX model for this study. FIG. 26B depicts a graph associated with the quantification of tumor weights in mice treated with Compound 39, Reference compound B, and ADWA-11 Ab for the study associated with Example B12. FIG. 26C depicts a graph associated with the quantification of tumor weights in mice treated with G/A, Compound 39+G/A, Reference compound B+G/A, and ADWA-11+G/A for the study associated with Example B12. P values by one-way ANOVA.

TKCC-10 PDX = assay: Orthotopic TKCC-10 (PDX-10) PDX model of PDAC (Example B12); type: in vivo, NSG mice
Protocol: as §1
TKCC-10 PDX bearing mice were treated with dose regimen according to the schematic in Table B-9 and FIG. 24A depicts a schematic diagram of the treatment regimen in the TKCC-10 mice. FIG. 24B depicts a graph showing final tumor weight for TKCC-10 PDX bearing mice after treatment with G/A, Compound 39, and Compound 39+G/A. FIG. 24C depicts a graph showing final tumor weight for TKCC-10 PDX bearing mice after treatment with G/A, ADWA-11, and ADWA-11+G/A.

## Cc1ncnc(Cl)c1C1(C(=O)N[C@@H](CCOCCCCc2ccc3c(n2)NCCC3)C(=O)O)CC1 [Compound 39, N-(1-(4-chloro-6-methylpyrimidin-5-yl)cyclopropane-1-carbonyl)-O-(4-(5,6,7,8-tetrahydro-1,8-naphthyridin-2-yl)butyl)-L-homoserine]
TKCC-05 tumors; 30 days treatment
  mean tumor weight: 0.23 ± 0.08 g and 0.228 ± 0.06 g
TKCC-05 tumors; in words, 26C
  tumor weight / tumor growth: significantly blocks tumor growth
TKCC-10 PDX; 30 days, Compound 39 300 mg/kg BID oral, G 100 mg/kg / A 30 mg/kg i.p. once per week, FIG. 24B
  mean tumor weight: 0.798 ± 0.17 g
TKCC-10 PDX; FIG. 25D
  mean number of lung metastases: 4.1±3.2
TKCC-10 PDX; in words, FIG. 24C, 73
  tumor weight / tumor growth: significantly blocked tumor growth and improved the response to the standard of care (SOC) chemotherapy G/A
